Laboratory results published in ChEMBL document CHEMBL1134300, “Oxindole-based inhibitors of cyclin-dependent kinase 2 (CDK2): design, synthesis, enzymatic activities, and X-ray crystallographic analysis” (J Med Chem, 2001).

Experiments:
[1] = biological target: Cyclin-dependent kinase 2 (Homo sapiens, UniProt P24941)
Description: Inhibitory activity against human cyclin-dependent kinase 2 (CDK2)

[2] = biological target: Cyclin-dependent kinase 1 (Homo sapiens, UniProt P06493)
Chain of Cyclin-dependent kinase 1 (P06493 whole entry): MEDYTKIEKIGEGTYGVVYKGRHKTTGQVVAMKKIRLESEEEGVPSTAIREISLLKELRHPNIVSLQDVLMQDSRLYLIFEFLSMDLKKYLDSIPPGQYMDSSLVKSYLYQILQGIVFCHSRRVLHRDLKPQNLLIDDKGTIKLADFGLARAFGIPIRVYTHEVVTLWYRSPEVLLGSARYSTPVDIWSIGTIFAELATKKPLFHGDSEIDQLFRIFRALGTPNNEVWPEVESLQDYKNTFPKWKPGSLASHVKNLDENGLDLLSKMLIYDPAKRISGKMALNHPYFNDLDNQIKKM
Description: Inhibitory activity against human cyclin-dependent kinase 1 (CDK1)

SMILES	IC50 [1]	IC50 [2]
Cc1ccc2c(c1)C(=NNc1ccc(S(N)(=O)=O)cc1)C(=O)N2 [GW275944X]	0.046 µM	0.33 µM
O=C1Nc2ccc3ncsc3c2/C1=C/Nc1ccc(S(=O)(=O)NCCc2c[nH]cn2)cc1	0.0036 µM	0.038 µM
CN(C)CCNS(=O)(=O)c1ccc(N/C=C2\C(=O)Nc3ccccc32)cc1	1 µM	5.5 µM
NS(=O)(=O)c1ccc(NN=C2C(=O)Nc3ccc(O)cc32)cc1	0.01 µM	0.077 µM
NS(=O)(=O)c1ccc(N/N=C2\C(=O)Nc3ccc4ncccc4c32)cc1 [GW305178X]	0.0016 µM	0.012 µM
O=C1Nc2ccc3ncsc3c2/C1=C/Nc1ccc(S(=O)(=O)NCCO)cc1	0.0047 µM	0.041 µM
O=C1Nc2ccc(-c3cnco3)cc2/C1=C/Nc1ccc2c(c1)CS(=O)(=O)C2	0.0089 µM	0.019 µM
NS(=O)(=O)c1ccc(NN=C2C(=O)Nc3cc(Br)ccc32)cc1	0.043 µM	0.52 µM
CC(C)(C)c1ccc2c(c1)NC(=O)/C2=N\Nc1ccc(S(N)(=O)=O)cc1	> 10 µM	> 10 µM
NS(=O)(=O)c1ccc(NN=C2C(=O)Nc3ccc(C(=O)NCCCn4ccnc4)cc32)cc1 [GW290597X]	0.025 µM	0.23 µM
Cc1cc(C)c2c(c1)/C(=C/Nc1ccc(S(N)(=O)=O)cc1)C(=O)N2	> 10 µM	> 10 µM
NS(=O)(=O)c1ccc(NN=C2C(=O)Nc3cccc([N+](=O)[O-])c32)cc1	2.4 µM	> 1 µM
N=C(N)NS(=O)(=O)c1ccc(N/C=C2\C(=O)Nc3ccc4ncsc4c32)cc1	0.0033 µM	0.045 µM
NS(=O)(=O)Cc1ccc(N/C=C2\C(=O)Nc3ccc4ncsc4c32)cc1	0.0075 µM	0.1 µM
O=C1Nc2ccc3ncsc3c2/C1=C/Nc1ccc(S(=O)(=O)N[n+]2ccc3ccccc3c2)cc1	–	0.042 µM
CS(=O)(=O)Cc1ccc(N/C=C2\C(=O)Nc3ccc4ncsc4c32)cc1	0.05 µM	1.2 µM
O=C1Nc2ccc3ncsc3c2/C1=C/Nc1ccc(S(=O)(=O)NCCOCCO)cc1	0.00054 µM	0.012 µM
COc1ccc2c(c1Cl)C(=NNc1ccc(S(N)(=O)=O)cc1)C(=O)N2	0.054 µM	1.7 µM
NS(=O)(=O)c1ccc(NN=C2C(=O)Nc3ccc(S(=O)(=O)O)cc32)cc1	0.015 µM	0.13 µM
NS(=O)(=O)c1ccc(N/C=C2\C(=O)Nc3ccc(-c4cnco4)cc32)cc1	0.0025 µM	0.017 µM
Cc1cccc(C)c1NS(=O)(=O)c1ccc(N/C=C2\C(=O)Nc3ccc4ncsc4c32)cc1	0.281 µM	14 µM
NS(=O)(=O)c1ccc(/N=N/c2c(O)[nH]c3cccc(I)c23)cc1	0.0046 µM	0.11 µM
O=C1Nc2ccccc2/C1=C/Nc1ccc(S(=O)(=O)Nc2nccs2)cc1	–	3.8 µM
NS(=O)(=O)c1ccc(N/N=C2\C(=O)Nc3cccc(/C=C/c4ccc(O)cc4)c32)cc1	–	0.17 µM
Nc1ccc2c(c1)C(=NNc1ccc(S(N)(=O)=O)cc1)C(=O)N2	0.074 µM	1.4 µM
NS(=O)(=O)c1ccc(NN=C2C(=O)Nc3cccc(Oc4ccccc4)c32)cc1	0.013 µM	0.29 µM
CNS(=O)(=O)c1ccc(N/C=C2\C(=O)Nc3ccccc32)cc1	–	2.9 µM

SMILES	IC50 [1]	IC50 [2]
O=C1Nc2ccc3ncsc3c2/C1=C/Nc1ccc(CS(=O)(=O)NCCO)cc1	0.013 µM	0.2 µM
NS(=O)(=O)c1ccc(N/C=C2\C(=O)Nc3cccc(CO)c32)cc1	0.054 µM	1.7 µM
CC(=O)NS(=O)(=O)c1ccc(N/C=C2\C(=O)Nc3ccc4ncsc4c32)cc1	0.075 µM	0.91 µM
C/C(Nc1ccc(S(N)(=O)=O)cc1)=C1/C(=O)Nc2ccccc21 [GW335962X]	0.36 µM	2.3 µM
NS(=O)(=O)c1ccc(NN=C2C(=O)Nc3ccc(I)cc32)cc1	0.011 µM	0.095 µM
NS(=O)(=O)c1ccc(NN=C2C(=O)Nc3ccc(S(N)(=O)=O)cc32)cc1	0.043 µM	0.17 µM
CC(C)Oc1cccc2c1C(=NNc1ccc(S(N)(=O)=O)cc1)C(=O)N2	0.0034 µM	0.041 µM
CN(c1ccccn1)S(=O)(=O)c1ccc(N/C=C2\C(=O)Nc3ccc4ncsc4c32)cc1	0.0056 µM	0.064 µM
CNS(=O)(=O)Cc1ccc(N/C=C2\C(=O)Nc3ccc4ncsc4c32)cc1	0.026 µM	0.17 µM
NS(=O)(=O)c1ccc(N/N=C2\C(=O)Nc3ccc4ncsc4c32)cc1	0.0071 µM	0.043 µM
Cc1c([N+](=O)[O-])ccc2c1C(=NNc1ccc(S(N)(=O)=O)cc1)C(=O)N2	0.0046 µM	0.087 µM
CC(C)CC(=O)c1ccc2c(c1)/C(=C/Nc1ccc(S(N)(=O)=O)cc1)C(=O)N2	0.0019 µM	0.016 µM
NS(=O)(=O)c1ccc(N/C=C2\C(=O)Nc3ccc(C(=O)O)cc32)cc1	0.028 µM	0.15 µM
CC(C)Cc1cccc2c1C(=NNc1ccc(S(N)(=O)=O)cc1)C(=O)N2	0.0012 µM	0.019 µM
NS(=O)(=O)c1ccc(NN=C2C(=O)Nc3ccc(C(=O)NCc4ccncc4)cc32)cc1 [GW300657X]	0.0089 µM	0.074 µM
NS(=O)(=O)c1ccc(NN=C2C(=O)Nc3cccc(-c4cc[nH]n4)c32)cc1	0.019 µM	0.25 µM
NS(=O)(=O)c1ccc(NN=C2C(=O)Nc3cccc(CCc4ccncc4)c32)cc1	0.021 µM	0.29 µM
CNS(=O)(=O)Cc1ccc(NN=C2C(=O)Nc3ccc4ncsc4c32)cc1	–	0.056 µM
C/C(Nc1ccc(S(N)(=O)=O)cc1)=C1/C(=O)Nc2ccc(Cl)cc21	0.022 µM	0.22 µM
CC(C)=Cc1cccc2c1C(=NNc1ccc(S(N)(=O)=O)cc1)C(=O)N2 [GW396574X]	0.0015 µM	0.015 µM
NS(=O)(=O)c1ccc(N/N=C2\C(=O)Nc3ccc(-c4cnco4)cc32)cc1 [GW276655X]	0.0023 µM	0.01 µM
CN(C)S(=O)(=O)c1ccc(N/C=C2\C(=O)Nc3ccc4ncsc4c32)cc1	0.0046 µM	0.05 µM
COc1ccc2c(c1)C(=NNc1ccc(S(N)(=O)=O)cc1)C(=O)N2	0.012 µM	0.21 µM
C/C(Nc1ccc(S(N)(=O)=O)cc1)=C1/C(=O)Nc2ccc(-c3cnco3)cc21	0.002 µM	0.0071 µM
NS(=O)(=O)c1ccc(N/C=C2\C(=O)Nc3ccc4ncccc4c32)cc1	0.0015 µM	0.015 µM
NC(=O)c1ccc2c(c1)C(=NNc1ccc(S(N)(=O)=O)cc1)C(=O)N2	0.0045 µM	0.0028 µM
CN(C)C(=O)c1ccc2c(c1)C(=NNc1ccc(S(N)(=O)=O)cc1)C(=O)N2	0.017 µM	0.13 µM

SMILES	IC50 [1]	IC50 [2]
CN(C)c1ccc2c(c1)/C(=C/Nc1ccc(S(N)(=O)=O)cc1)C(=O)N2 [GW416469X]	0.31 µM	2.8 µM
NS(=O)(=O)c1ccc(N/C=C2\C(=O)Nc3ccccc32)cc1	0.69 µM	3 µM
NS(=O)(=O)c1ccc(N/N=C2\C(=O)Nc3ccc(Cl)cc32)cc1 [GW280670X]	0.043 µM	0.3 µM
NS(=O)(=O)c1ccc(NN=C2C(=O)Nc3ccc(F)cc32)cc1	0.034 µM	0.29 µM
CC(C)c1cccc2c1C(=NNc1ccc(S(N)(=O)=O)cc1)C(=O)N2	0.0025 µM	0.037 µM
NS(=O)(=O)c1ccc(N/C=C2\C(=O)Nc3cc(CO)ccc32)cc1	0.061 µM	0.74 µM
CCc1cccc2c1C(=NNc1ccc(S(N)(=O)=O)cc1)C(=O)N2	0.0079 µM	0.046 µM
Cc1ccc2c(c1Cl)C(=NNc1ccc(S(N)(=O)=O)cc1)C(=O)N2	0.013 µM	0.25 µM
COc1cccc(OC)c1CNC(=O)c1ccc2c(c1)C(=NNc1ccc(S(N)(=O)=O)cc1)C(=O)N2	0.0017 µM	0.0093 µM
CC(C)c1ccc2c(c1)NC(=O)/C2=N/Nc1ccc(S(N)(=O)=O)cc1 [GW300653X]	0.075 µM	0.79 µM
O=C1Nc2ccc3ncsc3c2/C1=C/Nc1ccc(S(=O)(=O)Nc2ccccc2)cc1	0.0043 µM	0.041 µM
NS(=O)(=O)c1ccc(NN=C2C(=O)Nc3ccc4[nH]nc(Cl)c4c32)cc1	0.0022 µM	0.083 µM
NS(=O)(=O)c1ccc(NN=C2C(=O)Nc3ccc([N+](=O)[O-])cc32)cc1	0.015 µM	0.71 µM
NS(=O)(=O)c1ccc(NN=C2C(=O)Nc3ccc(C(=O)NCc4cccnc4)cc32)cc1	0.0021 µM	0.051 µM
COC(=O)c1ccc2c(c1)/C(=C/Nc1ccc(S(N)(=O)=O)cc1)C(=O)N2	0.0021 µM	0.012 µM
NS(=O)(=O)c1ccc(NN=C2C(=O)Nc3ccc4[nH]ncc4c32)cc1	0.013 µM	0.12 µM
CS(=O)(=O)c1ccc(N/C=C2\C(=O)Nc3ccc4ncsc4c32)cc1	0.0057 µM	0.039 µM
Cc1cccc2c1NC(=O)/C2=C\Nc1ccc(S(N)(=O)=O)cc1	> 10 µM	> 10 µM
O=C1Nc2ccc3ncsc3c2/C1=C/Nc1ccc(S(=O)(=O)Nc2ccccn2)cc1	–	0.1 µM
CS(=O)(=O)c1ccc2c(c1)C(=NNc1ccc(S(N)(=O)=O)cc1)C(=O)N2	0.016 µM	0.35 µM
NS(=O)(=O)c1ccc(NC=C2C(=O)Nc3ccc4ncsc4c32)cc1 [GW589933X]	0.0028 µM	0.029 µM
NC(=O)c1cccc2c1C(=NNc1ccc(S(N)(=O)=O)cc1)C(=O)N2	> 1 µM	> 1 µM
COCCOCCOCCOCCN(C)S(=O)(=O)c1ccc(N/C=C2\C(=O)Nc3ccc4ncsc4c32)cc1	0.001 µM	0.045 µM
CC(C)(CO)CNC(=O)c1ccc2c(c1)C(=NNc1ccc(S(N)(=O)=O)cc1)C(=O)N2 [GW301784X]	0.0068 µM	0.06 µM
CCc1ccc2c(c1)NC(=O)C2=NNc1ccc(S(N)(=O)=O)cc1	0.021 µM	0.66 µM
COCCOCCOCCOCCNS(=O)(=O)c1ccc(N/C=C2\C(=O)Nc3ccc4ncsc4c32)cc1	0.0045 µM	0.072 µM
